Among the data in patent publication US12187728B2 (Raze Therapeutics, Inc., priority 2015, dated 2025) are IC50 values, retold here.

The experiment has as its target T1, Human MTHFD2 (Homo sapiens, UniProt P13995).
T1 construct: residues 36-350 in Uniport ID P13995; His6 (N); made in house; host or cells: E. coli
T1 sequence (P13995 36-350): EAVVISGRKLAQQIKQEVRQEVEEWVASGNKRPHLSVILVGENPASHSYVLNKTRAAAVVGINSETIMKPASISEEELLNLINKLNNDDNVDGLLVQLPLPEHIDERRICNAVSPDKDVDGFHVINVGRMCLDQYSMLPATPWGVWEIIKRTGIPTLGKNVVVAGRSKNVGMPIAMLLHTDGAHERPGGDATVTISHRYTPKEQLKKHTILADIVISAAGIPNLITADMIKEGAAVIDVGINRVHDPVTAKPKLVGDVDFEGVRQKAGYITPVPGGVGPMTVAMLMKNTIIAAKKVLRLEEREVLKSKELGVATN
In words: MTHFD2 Activity Assay (dehydrogenase activity, diaphorase/resazurin coupled fluorescence). In kind it is biochemical. The settings on record: inhibitory activity (IC50 and/or binding constant); 0.2 nM MTHFD2, 11 concentrations. The method in brief: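 Steps: compound + 0.2 nM enzyme, 15 min, pH 8.0 Hepes buffer; add 70 μM CH2-THF, 1 mM NAD+, 100 μM resazurin, diaphorase; 30 min; quench with EDTA; read fluorescence. Data normalized to DMSO (100%) and no-enzyme (0%) wells.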
For orientation: Alamar Blue is a resazurin reagent that responds to reducing activity.
The IC50 is the concentration at which inhibition is half-maximal. Lower therefore signals greater potency in that assay. Take `COc1ccc2c(c1)cc(Cn1c(=O)c3c(ncn3C)n(C)c1=O)n2C` [Example 238, 1-((5-methoxy-1-methyl-1H-indol-2-yl)methyl)-3,7-dimethyl-1H-purine-2,6(3H,7H)-dione]: the IC50 was > 10000 nM.
For `Cn1c(N[C@H]2CCC[C@@H](O)C2)nc2c1c(=O)n(Cc1ccc(Cl)c(Cl)c1)c(=O)n2C` (single isomer, unassigned) [Example 78, 1-(3,4-dichlorobenzyl)-8-((1S,3R)-3-hydroxycyclohexylamino)-3,7-dimethyl-1H-purine-2,6(3H,7H)-dione or 1-(3,4-dichlorobenzyl)-8-((1R,3S)-3-hydroxycyclohexylamino)-3,7-dimethyl-1H-purine-2,6(3H,7H)-dione], the IC50 was in the range of 10 to 1000 nM.
To `Cn1c(N[C@@H]2CC[C@@H](O)C2)nc2c1c(=O)n(Cc1ccc(C#N)c(Cl)c1)c(=O)n2C` (racemic) [Example 247, (±)-2-chloro-4-((8-((trans)-3-hydroxycyclopentylamino)-3,7-dimethyl-2,6-dioxo-2,3,6,7-tetrahydro-1H-purin-1-yl)methyl)benzonitrile] belongs 1000 to 5000 nM.
To `COc1ccc2[nH]c(Cn3c(=O)c4c(nc(N[C@H]5CC[C@@H](O)C5)n4C)n(C)c3=O)cc2c1` [Example 182, 8-((1S,3R)-3-hydroxycyclopentylamino)-1-((5-methoxy-1H-indol-2-yl)methyl)-3,7-dimethyl-1H-purine-2,6(3H,7H)-dione] belongs 10 to 1000 nM; to `Cn1c(Nc2cccc(CCCO)n2)nc2c1c(=O)n(Cc1ccc(Cl)c(Cl)c1)c(=O)n2C` [Example 293, 1-(3,4-dichlorobenzyl)-8-(6-(3-hydroxypropyl)pyridin-2-ylamino)-3,7-dimethyl-1H-purine-2,6(3H,7H)-dione], 10 to 1000 nM.
To `Cn1c(Nc2ccncc2)nc2c1c(=O)n(Cc1cc3c(Cl)ccc(Cl)c3[nH]1)c(=O)n2C` [Example 477, 1-((4,7-dichloro-1H-indol-2-yl)methyl)-3,7-dimethyl-8-(pyridin-4-ylamino)-1H-purine-2,6(3H,7H)-dione] belongs 10 to 1000 nM; to `Cn1c(Nc2ccnc(CCC(=O)O)n2)nc2c1c(=O)n(Cc1cc3c(Cl)cccc3[nH]1)c(=O)n2C` [Example 355, 3-(4-(1-((4-chloro-1H-indol-2-yl)methyl)-3,7-dimethyl-2,6-dioxo-2,3,6,7-tetrahydro-1H-purin-8-ylamino)pyrimidin-2-yl)propanoic acid], 10 to 1000 nM.
As to `Cn1c(N[C@H]2CC[C@@H](O)C2)nc2c1c(=O)n(Cc1ccc(C(F)(F)F)cc1)c(=O)n2C` (racemic) [Example 171, (±)-8-((cis)-3-hydroxycyclopentylamino)-3,7-dimethyl-1-(4-(trifluoromethyl)benzyl)-1H-purine-2,6(3H,7H)-dione], the IC50 was 1000 to 5000 nM.
On to `CCn1c(=O)n(Cc2cc3c(Cl)cccc3[nH]2)c(=O)c2c1nc(C(C)N)n2C` (stereo not drawn) [Example 441, 8-(1-aminoethyl)-1-((4-chloro-1H-indol-2-yl)methyl)-3-ethyl-7-methyl-1H-purine-2,6(3H,7H)-dione], for which the concentration for half-maximal inhibition (IC50) lay in the range of 10 to 1000 nM.
To `COC(=O)c1ccc(Nc2nc3c(c(=O)n(Cc4cc5c(Cl)cccc5[nH]4)c(=O)n3C)n2C)cn1` [Example 408, Methyl 5-(1-((4-chloro-1H-indol-2-yl)methyl)-3,7-dimethyl-2,6-dioxo-2,3,6,7-tetrahydro-1H-purin-8-ylamino)picolinate] belongs 10 to 1000 nM.
For `CCN(CC)C(=O)CCc1nccc(Nc2nc3c(c(=O)n(Cc4cc5c(Cl)cccc5[nH]4)c(=O)n3C)n2C)n1` [Example 426, 3-(4-(1-((4-chloro-1H-indol-2-yl)methyl)-3,7-dimethyl-2,6-dioxo-2,3,6,7-tetrahydro-1H-purin-8-ylamino)pyrimidin-2-yl)-N,N-diethylpropanamide] the value was 10 to 1000 nM.
To `Cn1c(NCC2(O)CCCCC2)nc2c1c(=O)n(Cc1ccc(Cl)c(Cl)c1)c(=O)n2C` [Example 106, 1-(3,4-dichlorobenzyl)-8-((1-hydroxycyclohexyl)methylamino)-3,7-dimethyl-1H-purine-2,6(3H,7H)-dione] belongs 1000 to 5000 nM.
